Assay type in all cases: in vivo
Experiment [1] concerns Vglut2+ spinal interneurons expressing hM4Di DREADD. Put plainly: DREADD experiment: T3 SCI immune suppression, Vglut2-Cre mice. The following applies: T3 SCI Vglut2-Cre mice with AAV8-hSyn-DIO-hM4D(Gi)-mCherry; CNO 1 mg/kg 2x/day, day 14-27 post-injury; day 28. How it is done: (§1) AAV8-hSyn-DIO-hM4Di-mCherry (AAV8-hSyn-DIO-hM4D(Gi)-mCherry; 7×10^12 vg/ml; UNC Vector Core) was injected into T5 and 7 levels of the spinal cord of Vglut2-Cre, Chat-Cre, or WT mice at P14 (0.8 μl/site, 0.25 mm lateral, 0.5 mm in depth). […] T3 SCI was induced at 8 weeks old, and then CNO (1.0 mg/kg body weight, i.p.; Sigma) was injected twice per day from day 14 to 27 post-injury (FIG. 3b). Small cohorts of mice from each colony were used as they reached the appropriate age for experimentation. […]
(§2) Spleens were harvested in Flow Cytometry Staining Buffer (eBioscience) and cell suspensions were made by expressing spleen tissue through a cell strainer using the plunger of a 10 ml syringe. […] Splenocytes were counted on a hemocytometer and 5×10^5 cells were incubated with Fc-block (anti-mouse-CD16/CD32 antibody; eBioscience). […] Splenocytes (10,000 events/sample) were analyzed using a FACSCanto flow cytometer with FACSDiva software (BD Biosciences). […] The number of each subset was calculated as the percentage of labeled cells multiplied by the total number of splenocytes.

The subject of experiment [2] is Chat+ spinal interneurons expressing hM4Di DREADD. Put plainly: DREADD experiment: T3 SCI immune suppression, Chat-Cre mice. The conditions noted are these: T3 SCI Chat-Cre mice with AAV8-hSyn-DIO-hM4D(Gi)-mCherry; CNO 1 mg/kg 2x/day, day 14-27 post-injury. How it is done:
as §1, §2

Experiment [3] concerns hM4Di-expressing Vglut2+ spinal interneurons. Put plainly: Colorectal distension (CRD) and c-Fos analyses after chemogenetic silencing. The following applies: T3 SCI Vglut2-Cre mice injected with AAV-hSyn-DIO-hM4Di-mCherry; CNO 1.0 mg/kg i.p. 30 min before CRD, day 28 post-injury, vs vehicle. How it is done: Colorectal distension was induced as previously reported3, 12, 13 with minor modification. A 4-French, 60 mm balloon-tipped catheter (Swan-Ganz monitoring catheter model 116F4; Edwards Life Sciences) was inserted 1.5 cm into the rectum before securing the catheter to the tail with surgical tape. The balloon was inflated with 0.2 ml of air for 30 sec then deflated 60 sec. This 90 sec cycle was repeated for 90 min. Mice were perfused 30 min after the final cycle of inflation. The number of c-Fos^+ cells were counted and analyzed in 2 representative horizontal spinal cord sections at T4-9 level from multiple SCI animals with or without CRD stimulation. The number of animals analyzed were: uninjured with or without CRD, n=3/group; T3 SCI (day 28) without CRD, n=3; T3 SCI (day 28) with CRD, n=5; Vglut2-Cre; cc-EGFP+T3 SCI (day 28) with CRD, n=3; Chat-Cre; cc-EGFP+T3 SCI (day 28) with CRD, n=3 (FIG. 7). To evaluate the effects of DREADD in mice with CRD-induced activation of visceral-sympathetic reflex, CNO (1.0 mg/kg body weight, i.p.; Sigma) or vehicle saline was injected into Vglut2-Cre+T3SCI+AAV8-hSyn-DIO-hM4D(Gi)-mCherry mice at day 28 post-injury, 30 min before the induction of CRD (n=3 each) (FIG. 9).

“Also recorded” adds a separate entry of the source.

For `C[N+]1([O-])CCN(C2=Nc3cc(Cl)ccc3Nc3ccccc32)CC1` [CNO, clozapine-N-oxide], in experiment [1], the Splenic atrophy result is reported as “reversed”; the “Total numbers of splenocytes, including CD4+ and CD8+ T cells and B220+ B cells” value is recorded as “restored to pre-injury levels”. Further, in experiment [2], the Immune protection result is on record as “modest non-significant immune protection”. Besides, the “c-Fos expression elicited by colorectal distension (silencing of hM4DGi+ spinal neurons)” value in experiment [3] is reported as “reduces c-Fos expression; also recorded: significant silencing”.

Source of the values: patent US20170266319A1, “METHODS AND COMPOSITIONS FOR TREATING CONDITIONS ASSOCIATED WITH SPINAL CORD INJURY” (priority 2016, published 2017).
